In brackets after ≈: the same amount, converted by molar mass. Several values for one entry are separate records, joined by “and”; a condition that tells them apart may be missing. Equal entries are not always repeated. Where two headings read alike, the source gives them in different places.
Legend:
[1] = system: Haemophilus influenzae (n = 14); test: MIC broth microdilution at IHMA Europe; assay type: cell-based, H. influenzae; details: for MIC: Haemophilus influenzae, read-out: MIC
[2] = system: Neisseria gonorrhoeae (n = 12); test: MIC broth microdilution at IHMA Europe; assay type: cell-based; details: for MIC: Neisseria gonorrhoeae, read-out: MIC
S. pneumoniae (n = 12) = test: MIC broth microdilution at IHMA Europe; assay type: cell-based; details: for MIC: Streptococcus pneumoniae, read-out: MIC
H. influenzae ATCC 49247 = system: H. influenzae ATCC 49247; parameters: method as in earlier work; details: QC range for H. influenzae ATCC 49247, ref CLSI; cited from earlier work
E. faecalis ATCC 29212 = system: E. faecalis ATCC 29212; parameters: method as in earlier work; details: QC range for E. faecalis ATCC 29212, ref CLSI; cited from earlier work
E. coli ATCC 25922 = system: E. coli ATCC 25922; parameters: method as in earlier work; details: QC range for E. coli ATCC 25922, ref CLSI; cited from earlier work

SMILES: Cc1[nH]c(C(=O)Nc2nc3c(N4[C@@H]5CC[C@H]4COC5)cc(C(=O)O)cc3s2)c(Cl)c1Cl [7h, 4-((1R,5S)-3-Oxa-8-azabicyclo[3.2.1]octan-8-yl)-2-(3,4-dichloro-5-methyl-1H-pyrrole-2-carboxamido)benzo[d]thiazole-6-carboxylic Acid]
- No. of isolates at MIC [1]: 5 and 4
- MIC ([1]; H. influenzae IHMA N° 1227715): 0.12 µg/mL (≈ 0.249 µM)
- MIC ([1]; H. influenzae IHMA N° 1241620): 0.12 µg/mL (≈ 0.249 µM)
- MIC ([1]; H. influenzae IHMA N° 1244149): 0.5 µg/mL (≈ 1.04 µM)
- MIC ([1]; H. influenzae IHMA N° 1249803): 0.12 µg/mL (≈ 0.249 µM)
- MIC ([1]; H. influenzae IHMA N° 1254355): 0.25 µg/mL (≈ 0.519 µM)
- MIC ([1]; H. influenzae IHMA N° 1258580): 0.5 µg/mL (≈ 1.04 µM)
- MIC ([1]; H. influenzae IHMA N° 1262734): 0.25 µg/mL (≈ 0.519 µM)
- MIC ([1]; H. influenzae IHMA N° 1272723): 0.12 µg/mL (≈ 0.249 µM)
- MIC ([1]; H. influenzae IHMA N° 1286846): 0.5 µg/mL (≈ 1.04 µM)
- MIC ([1]; H. influenzae IHMA N° 1337530): 0.12 µg/mL (≈ 0.249 µM)
- MIC ([1]; H. influenzae IHMA N° 1440085): 0.5 µg/mL (≈ 1.04 µM)
- MIC ([1]; H. influenzae IHMA N° 1479509): 1 µg/mL (≈ 2.08 µM)
- MIC ([1]; H. influenzae IHMA N° 1952952): 0.25 µg/mL (≈ 0.519 µM)
- MIC ([1]; H. influenzae IHMA N° 2047461): 0.25 µg/mL (≈ 0.519 µM)
- Cumulative % at MIC ([1]; MIC […] µg/mL): 92.9%
- Cumulative % at MIC ([1]; MIC […] µg/mL): 100.0%
- No. of isolates at MIC ([1]; MIC […] µg/mL): 1
- MIC, all isolates ([1]; n = 14): ≤ 1 µg/mL
- No. of isolates at MIC [2]: 8 and 4
- Cumulative % at MIC ([2]; MIC 0.06 µg/mL): 100.0%
- Cumulative % at MIC ([2]; MIC ≤0.03 µg/mL): 66.7%
- MIC ([2]; isolate IHMA 1123853): ≤ 0.03 µg/mL
- MIC ([2]; isolate IHMA 1130935): ≤ 0.03 µg/mL
- MIC ([2]; isolate IHMA 1130989): 0.06 µg/mL (≈ 0.125 µM)
- MIC ([2]; isolate IHMA 1130991): ≤ 0.03 µg/mL
- MIC ([2]; isolate IHMA 1137292): 0.06 µg/mL (≈ 0.125 µM)
- MIC ([2]; isolate IHMA 1145734): ≤ 0.03 µg/mL
- MIC ([2]; isolate IHMA 1145735): ≤ 0.03 µg/mL
- MIC ([2]; isolate IHMA 1165897): ≤ 0.03 µg/mL
- MIC ([2]; isolate IHMA 1194748): ≤ 0.03 µg/mL
- MIC ([2]; isolate IHMA 1194750): ≤ 0.03 µg/mL
- MIC ([2]; isolate IHMA 1546199): 0.06 µg/mL (≈ 0.125 µM)
- MIC ([2]; isolate IHMA 1546215): 0.06 µg/mL (≈ 0.125 µM)
- MIC, all isolates ([2]; n = 12): ≤ 0.06 µg/mL
- Cumulative % at MIC (S. pneumoniae (n = 12); MIC 0.06 µg/mL): 16.7%
- Cumulative % at MIC (S. pneumoniae (n = 12); MIC […] µg/mL): 100.0%
- Cumulative % at MIC (S. pneumoniae (n = 12); MIC […]): 91.7%
- MIC (S. pneumoniae (n = 12); S. pneumoniae IHMA N° 1775387): 0.25 µg/mL (≈ 0.519 µM)
- MIC (S. pneumoniae (n = 12); S. pneumoniae IHMA N° 1776057): 0.5 µg/mL (≈ 1.04 µM)
- MIC (S. pneumoniae (n = 12); S. pneumoniae IHMA N° 1785617): 0.25 µg/mL (≈ 0.519 µM)
- MIC (S. pneumoniae (n = 12); S. pneumoniae IHMA N° 1800765): 0.25 µg/mL (≈ 0.519 µM)
- MIC (S. pneumoniae (n = 12); S. pneumoniae IHMA N° 1811259): 0.06 µg/mL (≈ 0.125 µM)
- MIC (S. pneumoniae (n = 12); S. pneumoniae IHMA N° 1831562): 0.25 µg/mL (≈ 0.519 µM)
- MIC (S. pneumoniae (n = 12); S. pneumoniae IHMA N° 1902609): 0.25 µg/mL (≈ 0.519 µM)
- MIC (S. pneumoniae (n = 12); S. pneumoniae IHMA N° 1979675): 0.25 µg/mL (≈ 0.519 µM)
- MIC (S. pneumoniae (n = 12); S. pneumoniae IHMA N° 1991963): 0.25 µg/mL (≈ 0.519 µM)
- MIC (S. pneumoniae (n = 12); S. pneumoniae IHMA N° 2057487): 0.25 µg/mL (≈ 0.519 µM)
- MIC (S. pneumoniae (n = 12); S. pneumoniae IHMA N° 2073087): 0.25 µg/mL (≈ 0.519 µM)
- MIC (S. pneumoniae (n = 12); S. pneumoniae IHMA N° 2117109): 0.06 µg/mL (≈ 0.125 µM)
- MIC, all isolates (S. pneumoniae (n = 12); n = 12): ≤ 0.5 µg/mL

SMILES: CC1(C)S[C@@H]2[C@H](NC(=O)[C@H](N)c3ccccc3)C(=O)N2[C@H]1C(=O)O [Ampicillin, ampicillin]
- MIC, CLSI Range (H. influenzae ATCC 49247): 2 to 8 µg/mL
- MIC, CLSI Range (E. faecalis ATCC 29212): 0,5 - 2 µg/mL
- MIC ([1]; H. influenzae IHMA N° 1227715): 16 µg/mL (≈ 45.8 µM)
- MIC ([1]; H. influenzae IHMA N° 1241620): 4 µg/mL (≈ 11.4 µM)
- MIC ([1]; H. influenzae IHMA N° 1244149): 16 µg/mL (≈ 45.8 µM)
- MIC ([1]; H. influenzae IHMA N° 1249803): 2 µg/mL (≈ 5.72 µM)
- MIC ([1]; H. influenzae IHMA N° 1254355): 2 µg/mL (≈ 5.72 µM)
- MIC ([1]; H. influenzae IHMA N° 1258580): 16 µg/mL (≈ 45.8 µM)
- MIC ([1]; H. influenzae IHMA N° 1262734): 8 µg/mL (≈ 22.9 µM)
- MIC ([1]; H. influenzae IHMA N° 1272723): 16 µg/mL (≈ 45.8 µM)
- MIC ([1]; H. influenzae IHMA N° 1286846): 8 µg/mL (≈ 22.9 µM)
- MIC ([1]; H. influenzae IHMA N° 1337530): 32 µg/mL (≈ 91.6 µM)
- MIC ([1]; H. influenzae IHMA N° 1440085): 8 µg/mL (≈ 22.9 µM)
- MIC ([1]; H. influenzae IHMA N° 1479509): 8 µg/mL (≈ 22.9 µM)
- MIC ([1]; H. influenzae IHMA N° 1952952): 4 µg/mL (≈ 11.4 µM)
- MIC ([1]; H. influenzae IHMA N° 2047461): 32 µg/mL (≈ 91.6 µM)
- Cumulative % at MIC ([1]; MIC […] µg/mL): 14.3%
- No. of isolates at MIC ([1]; MIC […] µg/mL): 2
- Cumulative % at MIC ([1]; MIC […] µg/mL): 85.7%
- No. of isolates at MIC ([1]; MIC […] µg/mL): 4
- Cumulative % at MIC ([1]; MIC 32 µg/mL): 100.0%
- No. of isolates at MIC ([1]; MIC 32 µg/mL): 2
- MIC, CLSI Range (E. coli ATCC 25922): 2 to 8 µg/mL
- Cumulative % at MIC (S. pneumoniae (n = 12); MIC […] µg/mL): 25.0%
- No. of isolates at MIC (S. pneumoniae (n = 12); MIC […] µg/mL): 2
- Cumulative % at MIC (S. pneumoniae (n = 12); MIC […] µg/mL): 33.3%
- No. of isolates at MIC (S. pneumoniae (n = 12); MIC […] µg/mL): 1
- Cumulative % at MIC (S. pneumoniae (n = 12); MIC […] µg/mL): 66.7%
- No. of isolates at MIC (S. pneumoniae (n = 12); MIC […] µg/mL): 4
- No. of isolates at MIC (S. pneumoniae (n = 12); MIC […] µg/mL): 2
- Cumulative % at MIC (S. pneumoniae (n = 12); MIC ≤0.03 µg/mL): 8.3%
- No. of isolates at MIC (S. pneumoniae (n = 12); MIC ≤0.03 µg/mL): 1
- MIC (S. pneumoniae (n = 12); S. pneumoniae IHMA N° 1775387): 4 µg/mL (≈ 11.4 µM)
- MIC (S. pneumoniae (n = 12); S. pneumoniae IHMA N° 1776057): 2 µg/mL (≈ 5.72 µM)
- MIC (S. pneumoniae (n = 12); S. pneumoniae IHMA N° 1785617): 8 µg/mL (≈ 22.9 µM)
- MIC (S. pneumoniae (n = 12); S. pneumoniae IHMA N° 1800765): 0.5 µg/mL (≈ 1.43 µM)
- MIC (S. pneumoniae (n = 12); S. pneumoniae IHMA N° 1811259): 2 µg/mL (≈ 5.72 µM)
- MIC (S. pneumoniae (n = 12); S. pneumoniae IHMA N° 1831562): ≤ 0.03 µg/mL
- MIC (S. pneumoniae (n = 12); S. pneumoniae IHMA N° 1902609): 4 µg/mL (≈ 11.4 µM)
- MIC (S. pneumoniae (n = 12); S. pneumoniae IHMA N° 1979675): 2 µg/mL (≈ 5.72 µM)
- MIC (S. pneumoniae (n = 12); S. pneumoniae IHMA N° 1991963): 1 µg/mL (≈ 2.86 µM)
- MIC (S. pneumoniae (n = 12); S. pneumoniae IHMA N° 2057487): 2 µg/mL (≈ 5.72 µM)
- MIC (S. pneumoniae (n = 12); S. pneumoniae IHMA N° 2073087): 8 µg/mL (≈ 22.9 µM)
- MIC (S. pneumoniae (n = 12); S. pneumoniae IHMA N° 2117109): 0.5 µg/mL (≈ 1.43 µM)

SMILES: O=C(O)c1cn(C2CC2)c2cc(N3CCNCC3)c(F)cc2c1=O [ciprofloxacin]
- Cumulative % at MIC ([2]; MIC 0.004 µg/mL): 41.7%
- No. of isolates at MIC ([2]; MIC 0.004 µg/mL): 5
- Cumulative % at MIC ([2]; MIC >[…] µg/mL): 100.0%
- No. of isolates at MIC ([2]; MIC >[…] µg/mL): 2
- MIC ([2]; isolate IHMA 1123853): > 8 µg/mL
- MIC ([2]; isolate IHMA 1130935): 4 µg/mL (≈ 12.1 µM)
- MIC ([2]; isolate IHMA 1130989): 4 µg/mL (≈ 12.1 µM)
- MIC ([2]; isolate IHMA 1130991): 8 µg/mL (≈ 24.1 µM)
- MIC ([2]; isolate IHMA 1137292): > 8 µg/mL
- MIC ([2]; isolate IHMA 1145734): 8 µg/mL (≈ 24.1 µM)
- MIC ([2]; isolate IHMA 1145735): 4 µg/mL (≈ 12.1 µM)
- MIC ([2]; isolate IHMA 1165897): 0.004 µg/mL (≈ 0.0121 µM)
- MIC ([2]; isolate IHMA 1194748): 0.004 µg/mL (≈ 0.0121 µM)
- MIC ([2]; isolate IHMA 1194750): 0.004 µg/mL (≈ 0.0121 µM)
- MIC ([2]; isolate IHMA 1546199): 0.004 µg/mL (≈ 0.0121 µM)
- MIC ([2]; isolate IHMA 1546215): 0.004 µg/mL (≈ 0.0121 µM)
